Legend:
male dd mice [1] = experiment: Muscle relaxant activity: rotating rod test; assay type: in vivo; conditions: 5 mice per group
Description: (§1) In this example, 5 male dd mice weighing 20±1 g were used as one group. Prior to the experiments, mice were placed on the rod having a diameter of 3 cm and rotating at 5 r.p.m. in the reverse direction of the rotation. […] The drugs were orally administered and the muscle relaxant activity with the passage of time was examined by the following tests.
Rotating rod test: The same mouse was placed on the rotating rod to observe whether it falls or not within 2 minutes.
(§2) In each test, the drug was considered to have a muscle relaxant activity when the mouse fell.

male dd mice [2] = experiment: Analgesic activity: acetic acid writhing; assay type: in vivo; conditions: Mus musculus, po, 1 h, acetic acid i.p. after 60 min, read-out: Inhibition ratio (writhes, vs control); for inhibition in vivo at 50 mg/kg: 50 mg/kg p.o.; for inhibition in vivo at 150 mg/kg: 150 mg/kg p.o.
Description: In this experiment, 10 male dd mice weighing 20±1 g were used as one group for examination of analgesic activity. Sixty minutes after oral administration of each drug to each animal, 0.2 ml of a 0.7% acetic acid solution was intraperitoneally administered to the animal. Starting 10 minutes after the administration of acetic acid, the number of writhes occurred in 10 minutes was counted. Average number of writhes and inhibition ratio in comparison with control group were calculated.

in vivo = conditions: mouse, po, mice, deaths counted for 7 days
Description: In this example, 3-7 male dd mice weighing 20±1 g were used as one group. Each drug was suspended in a 0.3% CMC solution and orally administered. After the administration, number of dead animals was counted for 7 days to determine LD50 value. As the reference drugs, mepirizole and benzydamine hydrochloride were dissolved in water and orally administered. The drugs and the reference drugs were also administered in the same manner as above in Examples 2-5.

male Wistar rats = experiment: Anti-inflammatory activity: carrageenin edema method; assay type: in vivo; conditions: Rattus norvegicus, po, 3 hours after carrageenin, read-out: Inhibition ratio (paw swelling, vs control); for inhibition in vivo at 150 mg/kg: 150 mg/kg p.o.
Description: In this experiment, 5 male Wistar rats weighing 140±10 g were used as one group. Sixty minutes after oral administration of each drug to each animal, 0.1 ml of a 1% carrageenin solution as a phlogistic agent was injected into the plantar surface of the right hind paw of the animal to induce inflammation. The volume of the paw was measured before and 3 hours after the injection of the phlogistic agent. Swelling ratio and inhibition ratio in comparison with control group were calculated.

male dd mice [3] = experiment: Muscle relaxant activity: slant test; assay type: in vivo; conditions: 5 mice per group
Description: as §1
Slant test: Each mouse was placed on a wire net inclined at an angle of 45° to observe whether it falls or not.
as §2

male dd mice [4] = experiment: Muscle relaxant activity: traction test; assay type: in vivo; conditions: 5 mice per group
From the text: as §1
Traction test: Forefeet of the same mouse were placed on a wire to observe whether it falls or not.
as §2

male dd mice [5] = experiment: Anticonvulsant activity: maximal electroshock convulsion test; assay type: in vivo; conditions: Mus musculus, po, 1 h, 60 min after administration, read-out: Maximal electroshock convulsion test, inhibition ratio; for responders at 150 mg/kg: 150 mg/kg p.o.; for responders at 300 mg/kg: 300 mg/kg p.o.
From the text: Anticonvulsant activity was examined according to maximal electroshock convulsion test.
In this experiment, 10 male dd mice weighing 23±1 g were used as one group. Each drug was orally administered to the animals. Sixty minutes after the administration, an electric current (2000 V, 50 mA) was applied to both eyes of the mouse for 0.2 second. Drug activity was judged according to whether tonic extensor seizures were observed or not.

| SMILES | Number of dropped mice, rotating rod test (male dd mice [1]; 150 mg/kg p.o., 1 hr) [mice] | Number of dropped mice, rotating rod test (male dd mice [1]; 150 mg/kg p.o., 2 hr) [mice] | Number of dropped mice, rotating rod test (male dd mice [1]; 150 mg/kg p.o., 3 hr) [mice] | inhibition in vivo at 50 mg/kg (male dd mice [2]) [%] | inhibition in vivo at 150 mg/kg (male dd mice [2]) [%] | LD50 at 168 h (in vivo) [mg/kg] | inhibition in vivo at 150 mg/kg (male Wistar rats) [%] | Number of dropped mice, slant test (male dd mice [3]; 300 mg/kg p.o., 1 hr) [mice] | Number of dropped mice, slant test (male dd mice [3]; 300 mg/kg p.o., 2 hr) [mice] | Number of dropped mice, slant test (male dd mice [3]; 300 mg/kg p.o., 3 hr) [mice] | Number of dropped mice, traction test (male dd mice [4]; 150 mg/kg p.o., 1 hr) [mice] | Number of dropped mice, traction test (male dd mice [4]; 150 mg/kg p.o., 2 hr) [mice] | Number of dropped mice, traction test (male dd mice [4]; 150 mg/kg p.o., 3 hr) [mice] | Number of dropped mice, slant test (male dd mice [3]; 150 mg/kg p.o., 1 hr) [mice] | Number of dropped mice, slant test (male dd mice [3]; 150 mg/kg p.o., 2 hr) [mice] | Number of dropped mice, slant test (male dd mice [3]; 150 mg/kg p.o., 3 hr) [mice] | responders at 150 mg/kg (male dd mice [5]) [%] | responders at 300 mg/kg (male dd mice [5]) [%] | also measured |
| --- | --- | --- | --- | --- | --- | --- | --- | --- | --- | --- | --- | --- | --- | --- | --- | --- | --- | --- | --- |
| Cc1c(C(=O)N(C)C)oc2cccc(Cl)c12 [Compound (A), 4-Chloro-N,N,3-trimethyl-benzo[b]furan-2-carboxamide] | 5 | 5 | 2 | 60.6 | 100 | > 1000 | 33.4 | 4 | 3 | 3 | 5 | 3 | 1 |  |  |  |  |  | Number of dropped mice, rotating rod test (male dd mice [1]; 75 mg/kg p.o., 1 hr): 3 mice; Number of dropped mice, rotating rod test (male dd mice [1]; 75 mg/kg p.o., 2 hr): 2 mice; Number of dropped mice, rotating rod test (male dd mice [1]; 75 mg/kg p.o., 3 hr): 1 mice; Number of dropped mice, traction test (male dd mice [4]; 75 mg/kg p.o., 1 hr): 3 mice; Number of dropped mice, traction test (male dd mice [4]; 75 mg/kg p.o., 2 hr): 0 mice; Number of dropped mice, traction test (male dd mice [4]; 75 mg/kg p.o., 3 hr): 0 mice; responders at 25 mg/kg (male dd mice [5]; 25 mg/kg p.o.): 10%; responders at 50 mg/kg (male dd mice [5]; 50 mg/kg p.o.): 30%; responders at 75 mg/kg (male dd mice [5]; 75 mg/kg p.o.): 80% |
| COc1cc(C)nc(-n2nc(C)cc2OC)n1 [Mepirizole, mepirizole, reference compound] | 5 | 1 | 0 | 30.4 |  | 500 to 1000 |  |  |  |  | 2 | 0 | 0 | 3 | 1 | 0 | 85.7 | 100 | inhibition in vivo at 200 mg/kg (male dd mice [2]; 200 mg/kg p.o.): 84.7%; inhibition in vivo at 100 mg/kg (male Wistar rats; 100 mg/kg p.o.): 29.2%; inhibition in vivo at 200 mg/kg (male Wistar rats; 200 mg/kg p.o.): 47%; responders at 100 mg/kg (male dd mice [5]; 100 mg/kg p.o.): 20% |
| Cc1ccc2oc(C(=O)N(C)C)c(C)c2c1 [Compound (E), N,N,3,5-Tetramethylbenzo-[b]furan-2-carboxamide] | 1 | 0 | 0 |  | 22.6 | > 1000 | 14.7 | 3 | 2 | 1 | 0 | 0 | 0 | 1 | 0 | 0 | 10 | 57.1 | Number of dropped mice, rotating rod test (male dd mice [1]; 300 mg/kg p.o., 1 hr): 4 mice; Number of dropped mice, rotating rod test (male dd mice [1]; 300 mg/kg p.o., 2 hr): 2 mice; Number of dropped mice, rotating rod test (male dd mice [1]; 300 mg/kg p.o., 3 hr): 2 mice; Number of dropped mice, traction test (male dd mice [4]; 300 mg/kg p.o., 1 hr): 3 mice; Number of dropped mice, traction test (male dd mice [4]; 300 mg/kg p.o., 2 hr): 1 mice; Number of dropped mice, traction test (male dd mice [4]; 300 mg/kg p.o., 3 hr): 1 mice |

From patent publication US4353923A, “Pharmaceutical composition containing a benzofurancarboxamide derivative as the active ingredient” (Kyowa Hakko Kogyo Co., Ltd., priority 1980, dated 1982)
